Drawing on US20250188110A1, “SPECIFIC SMALL MOLECULE INHIBITORS THAT BLOCK KMT9 METHYLTRANSFERASE ACTIVITY AND FUNCTION” (ALBERT-LUDWIGS-UNIVERSITÄT FREIBURG, priority 2021, published 2025), this text covers ΔTm, IC50 and Kd for 18 compounds.

Experiment [1] deals with T1, KMT9 (Homo sapiens, UniProt Q9Y5N5).
T1 sequence (Q9Y5N5 1-214): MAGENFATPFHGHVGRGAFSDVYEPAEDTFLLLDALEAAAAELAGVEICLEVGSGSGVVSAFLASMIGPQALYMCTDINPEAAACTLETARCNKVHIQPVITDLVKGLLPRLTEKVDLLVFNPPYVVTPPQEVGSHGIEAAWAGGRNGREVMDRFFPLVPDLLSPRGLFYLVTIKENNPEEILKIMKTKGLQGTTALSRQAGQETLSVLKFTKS
T1 sequence (Q9UI30 1-120 isoform Q9UI30-2 partner): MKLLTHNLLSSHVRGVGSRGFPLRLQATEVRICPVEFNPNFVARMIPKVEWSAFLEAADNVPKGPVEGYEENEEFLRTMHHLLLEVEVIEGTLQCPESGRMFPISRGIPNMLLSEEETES
The experiment is described as follows: KMT9 thermal shift assay (SyproOrange). It is filed as binding. The essentials: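 Recombinant KMT9 was incubated with compound and SyproOrange at 25° C in 50 mM BTP pH 8.5, 1 mM MgCl2, 1 mM DTT. It was then heated from 20° C to 95° C at 1° C per 15 s with fluorescence read each step. Tm came from a Boltzmann sigmoidal fit; ΔTm relative to DMSO control, binned in 5 K ranges.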

For experiment [2], the target named is T1, KMT9. Nature of the experiment: KMT9 methyltransferase inhibition assay, MTaseGlo luminescence (from entry 155). The conditions noted are these: 100 nM KMT9, 5 μM ETF1, 1 μM SAM. It is filed as biochemical. The procedure, abridged: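 KMT9 (100 nM final) pre-incubated with inhibitor for 15 min at room temperature, then reacted with 5 μM ETF1 and 1 μM SAM for 2 h at 30° C. at 2% DMSO final. MTaseGlo luminescence read after 60 min detection; IC50 reported in four potency bins.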

Experiment [3] deals with T1, KMT9. The experiment is described as follows: Microscale thermophoresis (MST) KMT9 binding. The procedure, abridged: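 His-tagged KMT9 (20 nM), RED-Tris-NTA labelled, titrated with varying compound concentrations in 25 mM HEPES pH 7.5, 100 mM NaCl, 1 mM DTT, 0.05% Tween. MST at 40% MST and 100% LED power, Nano-RED excitation; Kd binned A ≤10 nM, B 10–100, C 100–1000, D >1000 nM.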
Background: MST reads how a fluorescent partner responds to local heating, with and without ligand.

Where [4] appears, read: ΔTm class, 500 uM compound, 2 μM KMT9, read-out: Thermal shift.
The mark [5] stands for this setting: IC50 class, MTaseGlo procedure (entries from 155 on), read-out: Inhibition.
[6] abbreviates: His-tag labelled KMT9 20 nM, Kd class, read-out: MST.
[7] abbreviates: ΔTm, 500 µM compound, 2 μM KMT9, 5X SO, read-out: Thermal shift.
Where [8] appears, read: from entry 155: MTaseGlo assay, read-out: Inhibition.
Setting [9] is: microscale thermophoresis, His-tag labelled KMT9 (20 nM), read-out: MST.
Setting [10] is: 500 µM compound, 2 μM KMT9, read-out: Thermal shift (ΔTm).
The mark [11] stands for this setting: MTaseGlo procedure (entries from 155), read-out: Inhibition (IC50).
[12] abbreviates: His-tag labelled KMT9 20 nM, read-out: MST (Kd).

Where two headings read alike, the source gives them in different places. Some results are limits rather than exact numbers.

`Nc1ncnc2c1ccn2[C@@H]1C[C@H](c2cccc(-c3cnsc3)c2)[C@@H](O)[C@H]1O` [Compound 650, (1R,2S,3R,5R)-3-(4-amino-7H-pyrrolo[2,3-d]pyrimidin-7-yl)-5-(3-(isothiazol-4-yl)phenyl)cyclopentane-1,2-diol]: at KMT9 [1] (setting [4]), the ΔTm at 500 µM was ≤ 10 °C. The IC50 at KMT9 [2] (setting [5]) is > 10000 nM. Besides, the Kd on KMT9 [3] (setting [6]) was in the range of 100 to 1000 nM.

For `CN1CCC([C@H]2C[C@@H](n3cc(-c4ccn(S(=O)(=O)c5ccccc5)n4)c4cnc(Cl)nc43)[C@H](O)[C@@H]2O)CC1` [Compound 495, (1R,2S,3R,5R)-3-(2-Chloro-5-(1-(phenylsulfonyl)-1H-pyrazol-3-yl)-7H-pyrrolo[2,3-d]pyrimidin-7-yl)-5-(1-methylpiperidin-4-yl)cyclopentane-1,2-diol], at KMT9 [1] (setting [4]), the ΔTm at 500 µM was 15 to 20 °C. In addition, the IC50 on KMT9 [2] (setting [5]) was in the range of 1000 to 10000 nM. Moreover, the Kd on KMT9 [3] (setting [6]) lay in the range of 10 to 100 nM.

For `Nc1ncnc2c1c(-c1nc(Cc3ccccc3)cs1)cn2[C@@H]1C[C@H]([C@H]2CCNC2)[C@@H](O)[C@H]1O` [Compound 589R, (1R,2S,3R,5R)-3-[4-Amino-5-(4-benzyl-1,3-thiazol-2-yl)pyrrolo[2,3-d]pyrimidin-7-yl]-5-[(3R)-pyrrolidin-3-yl]cyclopentane-1,2-diol], the ΔTm at 500 µM on KMT9 [1] (setting [4]) is 10 to 15 °C. Moreover, at KMT9 [2] (setting [5]), the IC50 is 1000 to 10000 nM. Also, the Kd on KMT9 [3] (setting [6]) is 100 to 1000 nM.

In the case of `O[C@@H]1[C@@H](CNCCCNCCc2ccccc2)C[C@@H](n2cc(-c3nc(Oc4ccccc4)cs3)c3cncnc32)[C@@H]1O` [Compound 639, (1S,2R,3R,5R)-3-(((3-(Phenethylamino)propyl)amino)methyl)-5-(5-(4-phenoxythiazol-2-yl)-7H-pyrrolo[2,3-d]pyrimidin-7-yl)cyclopentane-1,2-diol], the ΔTm at 500 µM at KMT9 [1] (setting [7]) was in the range of 10 to 15 °C. In addition, the IC50 at KMT9 [2] (setting [8]) lay within 1000 to 10000 nM. The Kd at KMT9 [3] (setting [9]) was > 1000 nM.

`Nc1nc(Cl)nc2c1c(-c1nc(Cc3ccccc3)cs1)cn2[C@@H]1C[C@H](CNCCCNCCc2ccc(F)cc2)[C@@H](O)[C@H]1O` [Compound 646, (1R,2S,3R,5R)-3-(4-Amino-5-(4-benzylthiazol-2-yl)-2-chloro-7H-pyrrolo[2,3-d]pyrimidin-7-yl)-5-(((3-((4-fluorophenethyl)amino)propyl)amino)methyl)cyclopentane-1,2-diol]: at KMT9 [1] (setting [4]), the ΔTm at 500 µM was > 20 °C. At KMT9 [2] (setting [5]), the IC50 was 100 to 1000 nM. Moreover, the Kd on KMT9 [3] (setting [6]) was 10 to 100 nM.

Take `CC(=O)c1cccc([C@H]2C[C@@H](n3ccc4c(N)ncnc43)[C@H](O)[C@@H]2O)c1` [Compound 408, 1-(3-((1R,2R,3S,4R)-4-(4-amino-7H-pyrrolo[2,3-d]pyrimidin-7-yl)-2,3-dihydroxycyclopentyl)phenyl)ethan-1-one]: the ΔTm at 500 µM at KMT9 [1] (setting [10]) is ≤ 10 °C. The IC50 on KMT9 [2] (setting [11]) is > 10000 nM. The Kd at KMT9 [3] (setting [12]) was > 1000 nM.

On to `Nc1ncnc2c1ccn2[C@@H]1C[C@H](c2cccc(-c3cscn3)c2)[C@@H](O)[C@H]1O` [Compound 654, (1R,2S,3R,5R)-3-{4-aminopyrrolo[2,3-d]pyrimidin-7-yl}-5-[3-(1,3-thiazol-4-yl)phenyl]cyclopentane-1,2-diol], for which, on KMT9 [1] (setting [4]), the ΔTm at 500 µM is ≤ 10 °C. Also, at KMT9 [2] (setting [5]), the IC50 was > 10000 nM. The Kd at KMT9 [3] (setting [6]) was > 1000 nM.

As for `NCc1cccc([C@H]2C[C@@H](n3ccc4c(N)ncnc43)[C@H](O)[C@@H]2O)c1` [Compound 659, (1R,2S,3R,5R)-3-(4-Amino-7H-pyrrolo[2,3-d]pyrimidin-7-yl)-5-(3-(aminomethyl)phenyl)cyclopentane-1,2-diol], the ΔTm at 500 µM at KMT9 [1] (setting [10]) is ≤ 10 °C. The IC50 at KMT9 [2] (setting [11]) fell in the range of 1000 to 10000 nM. Besides, the Kd on KMT9 [3] (setting [12]) was 100 to 1000 nM.

For `Nc1ncnc2c1ccn2[C@@H]1C[C@H]([C@@H]2CCCN2)[C@@H](O)[C@H]1O` [Compound 399, (1R,2S,3R,5R)-3-(4-amino-7H-pyrrolo[2,3-a]pyrimidin-7-yl)-5-((S)-pyrrolidin-2-yl) cyclopentane-1,2-diol], the ΔTm at 500 µM on KMT9 [1] (setting [10]) is ≤ 10 °C. The IC50 on KMT9 [2] (setting [11]) was > 10000 nM. Besides, the Kd on KMT9 [3] (setting [12]) is > 1000 nM.

With `Nc1ncnc2c1ccn2[C@@H]1C[C@H](c2cccc(-c3cccnc3)c2)[C@@H](O)[C@H]1O` [Compound 649, (1R,2S,3R,5R)-3-(4-amino-7H-pyrrolo[2,3-d]pyrimidin-7-yl)-5-(3-(pyridin-3-yl)phenyl)cyclopentane-1,2-diol], the ΔTm at 500 µM on KMT9 [1] (setting [4]) is ≤ 10 °C. For the same compound, the IC50 at KMT9 [2] (setting [5]) was > 10000 nM. Further, the Kd at KMT9 [3] (setting [6]) is > 1000 nM.

As to `CNc1ncnc2c1ccn2[C@@H]1C[C@H](c2ccc(O)cc2)[C@@H](O)[C@H]1O` [Compound 406, (1S,2R,3R,5R)-3-(4-hydroxyphenyl)-5-(4-(methylamino)-7H-pyrrolo[2,3-a]pyrimidin-7-yl) cyclopentane-1,2-diol], at KMT9 [1] (setting [10]), the ΔTm at 500 µM was ≤ 10 °C. Moreover, the IC50 at KMT9 [2] (setting [11]) is > 10000 nM. For the same compound, the Kd on KMT9 [3] (setting [12]) was > 1000 nM.

On to `O[C@@H]1[C@@H](CNCCCNCCc2ccccc2)C[C@@H](n2cc(-c3nc(Cc4ccccc4)cs3)c3cncnc32)[C@@H]1O` [Compound 613, (1R,2S,3R,5R)-3-(5-(4-benzylthiazol-2-yl)-7H-pyrrolo[2,3-d]pyrimidin-7-yl)-5-(((3-(phenethylamino)propyl)amino)methyl)cyclopentane-1,2-diol], for which the ΔTm at 500 µM at KMT9 [1] (setting [7]) was 10 to 15 °C. Moreover, on KMT9 [2] (setting [8]), the IC50 was 1000 to 10000 nM. Moreover, the Kd at KMT9 [3] (setting [9]) is > 1000 nM.

Take `Nc1nc(Cl)nc2c1ccn2[C@@H]1C[C@H](c2cccc(CN3CCC3)c2)[C@@H](O)[C@H]1O` [Compound 672, (1R,2S,3R,5R)-3-(4-amino-2-chloro-7H-pyrrolo[2,3-d]pyrimidin-7-yl)-5-(3-(azetidin-1-ylmethyl)phenyl)cyclopentane-1,2-diol]: at KMT9 [1] (setting [10]), the ΔTm at 500 µM lay within 10 to 15 °C. For the same compound, the IC50 at KMT9 [2] (setting [11]) was in the range of 100 to 1000 nM. The Kd at KMT9 [3] (setting [12]) lay within 10 to 100 nM.

With `O[C@@H]1[C@H](O)[C@@H](C2CCN(CC3CC3)CC2)C[C@H]1n1cc(-c2nc(Cc3ccccc3)cs2)c2cnc(Cl)nc21` [Compound 497, (1R,2S,3R,5R)-3-(5-(4-Benzylthiazol-2-yl)-2-chloro-7H-pyrrolo[2,3-d]pyrimidin-7-yl)-5-(1-(cyclopropylmethyl)piperidin-4-yl)cyclopentane-1,2-diol], the ΔTm at 500 µM at KMT9 [1] (setting [4]) lay within 10 to 15 °C. On KMT9 [2] (setting [5]), the IC50 lay within 1000 to 10000 nM. At KMT9 [3] (setting [6]), the Kd is 10 to 100 nM.

With `O[C@@H]1[C@@H](CNCCCNCCc2ccc(F)cc2)C[C@@H](n2cc(-c3cc(Cc4ccccc4)cs3)c3cncnc32)[C@@H]1O` [Compound 618, (1R,2S,3R,5R)-3-[5-(4-Benzylthiophen-2-yl)pyrrolo[2,3-d]pyrimidin-7-yl]-5-{[(3-{[2-(4-fluorophenyl)ethyl]amino}propyl)amino]methyl}cyclopentane-1,2-diol], the ΔTm at 500 µM at KMT9 [1] (setting [4]) is 10 to 15 °C. For the same compound, at KMT9 [2] (setting [5]), the IC50 was 1000 to 10000 nM. Also, on KMT9 [3] (setting [6]), the Kd fell in the range of 100 to 1000 nM.

Regarding `CN1CCC([C@H]2C[C@@H](n3cc(-c4ccn(Cc5ccccc5)n4)c4cnc(Cl)nc43)[C@H](O)[C@@H]2O)CC1` [Compound 491, (1R,2S,3R,5R)-3-(5-(1-benzyl-1H-pyrazol-3-yl)-2-chloro-7H-pyrrolo[2,3-d]pyrimidin-7-yl)-5-(1-methylpiperidin-4-yl)cyclopentane-1,2-diol], the ΔTm at 500 µM at KMT9 [1] (setting [4]) was in the range of 15 to 20 °C. In addition, the IC50 on KMT9 [2] (setting [5]) lay within 100 to 1000 nM. The Kd at KMT9 [3] (setting [6]) was 100 to 1000 nM.

Take `COc1csc(-c2cn([C@@H]3C[C@H](CNCCCNCCc4ccccc4)[C@@H](O)[C@H]3O)c3ncncc23)n1` [Compound 615, (1R,2S,3R,5R)-3-(5-(4-Methoxythiazol-2-yl)-7H-pyrrolo[2,3-d]pyrimidin-7-yl)-5-(((3-(phenethylamino)propyl)amino)methyl)cyclopentane-1,2-diol]: the ΔTm at 500 µM on KMT9 [1] (setting [4]) is ≤ 10 °C. Also, the IC50 at KMT9 [2] (setting [5]) was > 10000 nM. Besides, on KMT9 [3] (setting [6]), the Kd was > 1000 nM.

Regarding `COc1cc(OC)cc([C@H]2C[C@@H](n3ccc4c(N)nc(Cl)nc43)[C@H](O)[C@@H]2O)c1` [Compound 664, (1R,2S,3R,5R)-3-{4-Amino-2-chloropyrrolo[2,3-d]pyrimidin-7-yl]-5-(3,5-dimethoxyphenyl)cyclopentane-1,2-diol], at KMT9 [1] (setting [10]), the ΔTm at 500 µM lay within 10 to 15 °C. In addition, the IC50 on KMT9 [2] (setting [11]) lay within 100 to 1000 nM. Besides, the Kd at KMT9 [3] (setting [12]) is 10 to 100 nM.
